Measured values as given in US4629793A, “2,3-di-substituted-5,6-dihydroimidazo [2,1-b] thiazole, its salts, production thereof and anti-inflammatory agent containing the same” (Toyo Jozo Kabushiki Kaisha, priority 1981, dated 1986).

System: not listed separately
Assay: Analgesic action, acetic acid stretching method, oral
Type: in vivo
Conditions: administered orally in mice

| Compound | analgesic action, at a dose of |
| --- | --- |
| CC1=C(C(=O)Nc2ccc(Cl)c(Cl)c2)SC2=NCCN21.Cl [Compound 15, 2-(3,4-dichlorophenylcarbamoyl)-3-methyl-5,6-dihydroimidazo [2,1-b] thiazole hydrochloride] | 25 mg/kg |

System: not listed separately
Assay: Anti-carrageenin edema action (oral, hind foot edema)
Type: in vivo, Wister rats
Conditions: Rattus norvegicus, po, 3 h, minimum dose with significant inhibition of edema 3 hours after carrageenin injection; p.o. one hour before carrageenin
Experimental: Fasting Wister rats, male, 5-6 weeks in age, five in one group, were injected subcutaneously in the sole of the caudal foot with 1% lambda carrageenin (0.05 ml), and the increase in the volume of the foot was measured at alliquot times. Then the compound of the invention was suspended in 0.3% CMC and administered orally one hour before carrageenin injection. 0.3% CMC alone was administered as a control.

| Compound | minimal effective dose |
| --- | --- |
| CC1=C(C(=O)Nc2ccccc2)SC2=NCCN21.Cl [Compound 2, 2-phenylcarbamoyl-3-methyl-5,6-dihydro-imidazo [2,1-b] thiazole hydrochloride] | 50 mg/kg |
| CC1=C(C(=O)Nc2ccc(Cl)cc2)SC2=NCCN21 [Compound 5] | 50 mg/kg |
| CC1=C(C(=O)Nc2cc(Cl)ccc2Cl)SC2=NCCN21 [Compound 7, 2-(2,5-dichlorophenylcarbamoyl)-3-methyl-5,6-dihydroimidazo [2,1-b] thiazole] | 100 mg/kg |
| CC1=C(C(=O)Nc2c(Cl)cc(Cl)cc2Cl)SC2=NCCN21 [Compound 19] | 100 mg/kg |
| CC1=C(C(=O)Nc2ccc(C)cc2Cl)SC2=NCCN21 [Compound 10] | 50 mg/kg |
| CC1=C(C(=O)Nc2ccc(Cl)c(Cl)c2)SC2=NCCN21 [Compound 30] | < 25 mg/kg |
| CC1=C(C(=O)Nc2ccccc2Cl)SC2=NCCN21.Cl [Compound 4, 2-(2-chlorophenylcarbamoyl)-3-methyl-5,6-dihydroimidazo [2,1-b] thiazole hydrochloride] | < 25 mg/kg |
| CC1=C(C(=O)Nc2ccc(Cl)c(Cl)c2)SC2=NCCN21.Cl [Compound 15, 2-(3,4-dichlorophenylcarbamoyl)-3-methyl-5,6-dihydroimidazo [2,1-b] thiazole hydrochloride] | < 25 mg/kg |
| CC1=C(C(=O)Nc2ccc(Br)cc2)SC2=NCCN21 [Compound 16] | 50 mg/kg |
| CC1=C(C(=O)Nc2ccccc2)SC2=NCCN21 [Compound 1, 2-phenylcarbamoyl-3-methyl-5,6-dihydro-imidazo [2,1-b] thiazole] | 100 mg/kg |
| CCOc1ccc(NC(=O)C2=C(C)N3CCN=C3S2)cc1 [Compound 14] | 50 mg/kg |
| CC1=C(C(=O)Nc2ccc(Cl)cc2C)SC2=NCCN21 [Compound 13] | 50 mg/kg |
| CC1=C(C(=O)Nc2ccc(Cl)cc2Cl)SC2=NCCN21 [Compound 32] | 50 mg/kg |
| COc1cc(OC)c(NC(=O)C2=C(C)N3CCN=C3S2)cc1Cl [Compound 21] | 100 mg/kg |
| COc1ccc(Cl)cc1NC(=O)C1=C(C)N2CCN=C2S1 [Compound 22] | 100 mg/kg |
| CCc1ccccc1NC(=O)C1=C(C)N2CCN=C2S1 [Compound 11] | 50 mg/kg |

Same assay, conditions: minimum dose with significant inhibition of edema 3 hours after carrageenin injection; p.o. one hour before carrageenin

| Compound | Minimum effective dose |
| --- | --- |
| CC1=C(C(=O)Nc2ccc(Cl)cc2)SC2=NCCN21 [Compound 6] | < 25 mg/kg, p.o. |

System: not listed separately
Assay: Acute toxicity, oral
Conditions: mouse, in vivo, mice, p.o.

| Compound | LD50 |
| --- | --- |
| CC1=C(C(=O)Nc2ccc(Cl)c(Cl)c2)SC2=NCCN21.Cl [Compound 15, 2-(3,4-dichlorophenylcarbamoyl)-3-methyl-5,6-dihydroimidazo [2,1-b] thiazole hydrochloride] | > 4000 mg/kg |

System: bovine serum albumin
Assay: not given
Conditions: known agents, stated "in general"; cited from earlier work

| Compound | effect on heat denaturation of bovine serum albumin |
| --- | --- |
| CC(C)(S)[C@@H](N)C(=O)O [D-penicillamine] | do not inhibit the heat denaturation of bovine serum albumin but rather stimulate the protein heat denaturation |
| Cn1cnc([N+](=O)[O-])c1Sc1ncnc2nc[nH]c12 [azathioprine] | do not inhibit the heat denaturation of bovine serum albumin but rather stimulate the protein heat denaturation |
| c1ccc([C@H]2CN3CCSC3=N2)cc1 [levamisol] | do not inhibit the heat denaturation of bovine serum albumin but rather stimulate the protein heat denaturation |
| gold sodium thiomalate | do not inhibit the heat denaturation of bovine serum albumin but rather stimulate the protein heat denaturation |

System: not listed separately
Assay: Adjuvant arthritis (chronic inflammation), oral
Type: in vivo
Conditions: administered orally, rats

| Compound | inhibited adjuvant arthritis, at a dose of |
| --- | --- |
| CC1=C(C(=O)Nc2ccc(Cl)c(Cl)c2)SC2=NCCN21.Cl [Compound 15, 2-(3,4-dichlorophenylcarbamoyl)-3-methyl-5,6-dihydroimidazo [2,1-b] thiazole hydrochloride] | 1 to 10 mg/kg |
